Source: the NIST ThermoML archive (doi:10.1021/je700126z)
± gives the expanded uncertainty stated by the source.

How the values were obtained:
[1] = 298.15 K; 101.33 kPa; Liquid; Vibrating tube method
[2] = refractive index (Na D-line) (dimensionless); conditions: 298.15 K; 101.33 kPa; Liquid; Standard Abbe refractometry

mass density [1] | refractive index [2] | SMILES
1104.42 ± 6.6 kg/m3 | 1.43329 ± 0.0012 | CCCCCCCC[n+]1ccn(C)c1.F[B-](F)(F)F [1-methyl-3-octylimidazolium tetrafluoroborate]
773.76 ± 0.24 kg/m3 | 1.42403 ± 0.0007 | C1CCCCC1 [cyclohexane]
655.06 ± 0.19 kg/m3 | 1.37287 ± 0.00068 | CCCCCC [hexane]
1058.5 ± 0.12 kg/m3 | 1.52581 ± 0.00068 | c1ccsc1 [thiophene]
